In US11857560B2, “Pharmaceutical compositions comprising substituted nucleotides and nucleosides for treating viral infections” (priority 2013, dated 2024):

Columns and labels:
HBV = HBV replication assay; format: cell-based; settings: Hepatitis B virus
Protocol: Ten microliters of cell culture supernatant collected on the sixth day was diluted in qPCR dilution buffer (40 μg/mL sheared salmon sperm DNA) and boiled for 15 minutes. Quantitative real time PCR was performed in […] using an Applied Biosystems 7900HT Sequence Detection System and the supporting SDS 2.4 software. Five microliters (5 μL) of boiled DNA for each sample and serial 10-fold dilutions of a quantitative DNA standard were subjected to real time Q-PCR using Platinum Quantitative PCR SuperMix-UDG (Invitrogen) and specific DNA oligonucleotide primers (IDT, Coralville, […]) HBV-AD38-qFI (5′-[…] -3′) (SEQ ID NO: 1), HBV-AD38-qR1 (5′-AGT CCA AGA GTY CTC TTA TRY AAG ACC TT-3′) (SEQ ID NO: 2), and HBV-AD38-qPI (5′-FAM CCG TGT GCA/ZEN/[…] -3′BHQ1) (SEQ ID NO: 3) at a final concentration of 0.2 μM for each primer in a total reaction volume of 15 μL. The HBV DNA copy number in each sample was interpolated from the standard curve by the SDS.24 software and the data were imported into an Excel spreadsheet for analysis.

[1] = Cytotoxicity in MRC-5 cells (HCMV assay); format: cell-based; settings: human, beside HCMV
[2] = Toxicity in Huh-7 cells (Dengue assay); settings: human, Huh-7 cells
VZV = VZV replication assay; format: cell-based; settings: Human alphaherpesvirus 3
[3] = Cytotoxicity in MRC-5 cells (VZV assay); format: cell-based; settings: human, beside VZV
Adenovirus = Adenovirus replication assay; format: cell-based; settings: unidentified adenovirus
HCMV = HCMV replication assay; format: cell-based; settings: Human betaherpesvirus 5
HSV-1 = HSV-1 replication assay; format: cell-based; settings: Human alphaherpesvirus 1
Huh-7 = experiment: Cytotoxicity panel, Huh-7; settings: read-out: Cytotoxicity (CC50 uM) Huh-7; Huh-7
[4] = Cytotoxicity in Huh-7 cells (HSV-1 assay); format: cell-based; settings: human, beside HSV-1
[5] = Cytotoxicity in PBM cells (HIV assay); format: cell-based; settings: human, peripheral blood mononuclear cells (PBMCs), PHA-P stimulated; beside HIV
HIV = HIV infected PBMC assay; format: cell-based, HIV-1; settings: Human immunodeficiency virus 1, PBMC
Protocol: Fresh human peripheral blood mononuclear cells (PBMCs) were obtained from a commercial source (Biological Specialty) and were determined to be seronegative for HIV and HBV. Depending on the volume of donor blood received, the leukophoresed blood cells were washed several times with PBS. After washing, the leukophoresed blood was diluted 1:1 with Dulbecco's phosphate buffered saline (PBS) and layered over 15 mL of Ficoll-Hypaque density gradient in a 50 ml conical centrifuge tube. These tubes were centrifuged for 30 min at 600 g. Banded PBMCs were gently aspirated from the resulting interface and washed three times with PBS. […] After incubation, PBMCs were centrifuged and resuspended in tissue culture medium. The cultures were maintained until use by half-volume culture changes with fresh IL-2 containing tissue culture medium every 3 days. […]
Following addition of test compound to the wells, 50 uL of a predetermined dilution of HIV virus (prepared from 4× of final desired in-well concentration) was added, and mixed well. […] After 7 days in culture, HIV-1 replication was quantified in the tissue culture supernatant by measurement of reverse transcriptase (RT) activity. […]
Reverse Transcriptase Activity Assay—Reverse transcriptase activity was measured in cell-free supernatants using a standard radioactive incorporation polymerization assay. […]

[6] = Cytotoxicity in HepG2 cells (HBV assay); format: cell-based; settings: human, HepG2.2.15 cells; beside HBV
Protocol: The 50% cytotoxic concentration for the test materials are derived by measuring the reduction of the tetrazolium dye XTT in the treated tissue culture plates. XTT is metabolized by the mitochondrial enzyme […] to a soluble formazan product in metabolically active cells. […] The 2-4 hour incubation has been empirically determined to be within linear response range for XTT dye reduction with the indicated numbers of cells for each assay. […] Data were collected by Softmax 4.6 software and imported into an Excel spreadsheet for analysis.

[7] = Cytotoxicity panel, HepG2; settings: human, HepG2 cells
[8] = system: HCV replicon 4a (GT1b/4a NS5B chimera); experiment: microbe, parasite or virus in culture; format: cell-based; settings: Hepatitis C virus, read-out: EC50 (μM) 4a (GT1b/4a NS5B chimera)
Cytotoxicity panel, CEM = settings: human, CEM cells, Cytotoxicity (CC50 uM) CEM
[9] = Cytotoxicity panel, Huh-7; settings: human, Huh-7 cells, Cytotoxicity (CC50 uM) Huh-7, Huh-7
[10] = system: HCV replicon 3a (GT1b/3a NS5B chimera); experiment: microbe, parasite or virus in culture; format: cell-based; settings: Hepatitis C virus, read-out: EC50 (μM) 3a (GT1b/3a NS5B chimera)
[11] = system: HCV replicon 2b (GT1b/2b NS5B chimera); experiment: microbe, parasite or virus in culture; format: cell-based; settings: Hepatitis C virus, read-out: EC50 (μM) 2b (GT1b/2b NS5B chimera)
[12] = Toxicity in Vero cells (Dengue assay); settings: African green monkey
Huh-7 cells = experiment: Toxicity in Huh-7 cells (Dengue assay); settings: read-out: CC50 uM; Cell Line Huh-7, pan-serotype Dengue table
Dengue Type 2 [13] = experiment: Anti-Dengue virus cytoprotection assay, Huh-7 cells; settings: Huh-7, read-out: Dengue Type 2 Huh-7 Cells (EC50 uM)
HepG2 = experiment: Cytotoxicity panel, HepG2; settings: read-out: Cytotoxicity (CC50 uM) HepG2; HepG2
Dengue Type 2 [14] = experiment: Anti-Dengue virus cytoprotection assay, Vero cells; settings: read-out: Dengue Type 2 Vero Cells (EC50 uM)

For CC(C)OC(=O)[C@H](C)NP(=O)(OC[C@H]1O[C@@H](n2ccc(=O)[nH]c2=S)[C@](C)(O)C1O)Oc1ccccc1 (stereo partly shown) [ENUC-01911], the EC50 (HBV) was > 100 µM, the CC50 [1] was > 100 µM and the CC50 [2] was > 100 µM. For the same compound, the EC50 (VZV) was > 100 µM, the CC50 [3] was > 100 µM and the EC50 (Adenovirus) was > 100 µM. The EC50 (HCMV) was > 100 µM, the EC50 (HSV-1) was > 100 µM and the CC50 (Huh-7) was > 400 µM. The CC50 [4] was > 100 µM, the CC50 at 7 days [5] was > 100 µM and the EC50 (HIV) was > 100 µM. For the same compound, the CC50 at 6 days [6] was > 100 µM.
In the case of CC(C)OC(=O)[C@H](C)N[P@](=O)(OC[C@H]1O[C@@H](n2ccc(=O)[nH]c2=S)[C@](C)(O)C1O)Oc1ccccc1 (stereo partly shown) [ENUC-02023-1], the CC50 [7] is reported as > 400 µM, the EC50 [8] is reported as 0.0254 µM and the CC50 (Cytotoxicity panel, CEM) is reported as > 400 µM. It also gave a CC50 [9] of 252 µM, an EC50 [10] of 0.0367 µM and an EC50 [11] of 0.0445 µM.
For CC(C)OC(=O)[C@H](C)N[P@](=O)(OC[C@H]1O[C@@H](n2ccc(=O)[nH]c2=S)[C@](C)(O)C1O)Oc1ccccc1 (stereo partly shown) [ENUC-02023], the CC50 [12] was > 100 µM, the CC50 (Huh-7 cells) was > 100 µM and the CC50 [2] was > 100 µM. For the same compound, the EC50 (Dengue Type 2 [13]) was 5.62 µM, the CC50 (HepG2) was > 400 µM and the EC50 (Dengue Type 2 [14]) was 2.35 µM.
